In general, IC50 refers to the concentration at which inhibition is half-maximal. Usually Km stands for the substrate concentration at which the rate is half of its maximum.

Data set [1] concerns the target RPE65 (Bos taurus, UniProt Q28175). Kind of data set: RPE65 activity assay in vitro (11-cis-retinol production by bovine RPE microsomes). The conditions noted are these: for RPE65 inhibition (in words): in vitro.
For data set [2], the system named is RPE65. The note with it: 10 mg/kg IP; for 11cRAL / RE: mean ± SD, n = 3 mice.
Data set [3] in a line: Observation of animals after treatment (toxicity). The note with it: 10 mg/kg IP; even 24 h after treatment. It counts as in vivo, BALB/cJ mice. An excerpt: Vehicle-only and nontreated animals served as controls. […] Three animals were used for each time point.
In data set [4] the test system is mouse liver microsomes (CYP-450 enzymes).
Data set [5] deals with T1, VAP-1 (Mus musculus, UniProt O70423).
T1 sequence (O70423 1-765): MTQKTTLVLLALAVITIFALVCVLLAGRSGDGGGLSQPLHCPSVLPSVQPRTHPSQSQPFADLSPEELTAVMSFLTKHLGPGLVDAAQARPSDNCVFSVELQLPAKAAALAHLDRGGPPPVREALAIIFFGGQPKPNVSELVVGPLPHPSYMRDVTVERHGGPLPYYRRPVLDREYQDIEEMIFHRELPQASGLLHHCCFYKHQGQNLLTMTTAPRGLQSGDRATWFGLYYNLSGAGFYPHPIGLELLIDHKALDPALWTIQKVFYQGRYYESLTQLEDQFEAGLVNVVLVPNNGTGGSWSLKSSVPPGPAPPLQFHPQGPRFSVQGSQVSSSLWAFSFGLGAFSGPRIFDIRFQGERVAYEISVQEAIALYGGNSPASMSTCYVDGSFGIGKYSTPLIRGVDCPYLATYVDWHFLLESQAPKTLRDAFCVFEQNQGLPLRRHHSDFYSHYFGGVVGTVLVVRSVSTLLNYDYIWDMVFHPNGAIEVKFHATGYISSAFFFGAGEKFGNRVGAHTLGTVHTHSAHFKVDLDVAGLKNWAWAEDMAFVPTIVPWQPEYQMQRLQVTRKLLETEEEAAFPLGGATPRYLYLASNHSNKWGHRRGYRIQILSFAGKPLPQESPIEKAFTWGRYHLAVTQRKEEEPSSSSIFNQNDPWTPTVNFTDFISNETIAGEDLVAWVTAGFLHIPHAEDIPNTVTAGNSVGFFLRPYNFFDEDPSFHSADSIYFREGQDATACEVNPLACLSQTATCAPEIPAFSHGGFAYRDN
The data set can be described thus: VAP-1 oxidation assay (mouse aorta homogenates). The note with it: role: substrate; for ACU-5201 (deaminated product) formed / concentration of tested compound in mouse aorta homogenate: 100 μM, mean ± SD, n = 3.

The next data set in a line: in vitro. The note with it: mouse, microsomes.
Data set [6] deals with VAP-1. The note with it: role: substrate; cited from earlier work.
Data set [7] deals with RPE65. The conditions noted are these: among first targeted inhibitors (amine derivatives of retinol); cited from earlier work.
[8] abbreviates: read-out: IC50 ± SD, bovine RPE microsomes, mean ± SD, n = 3.
Setting [9] is: bovine RPE microsomes, mean ± SD, n = 3.

Several values for one entry are separate records, joined by “and”; a condition that tells them apart may be missing. Equal values may be shown once. Entries after “also recorded” stand apart in the source; their conditions may differ. Read-outs that look alike come from different tables or passages of the source.

Sequence of RPE65 (Bos taurus, UniProt Q28175) (Q28175 whole entry): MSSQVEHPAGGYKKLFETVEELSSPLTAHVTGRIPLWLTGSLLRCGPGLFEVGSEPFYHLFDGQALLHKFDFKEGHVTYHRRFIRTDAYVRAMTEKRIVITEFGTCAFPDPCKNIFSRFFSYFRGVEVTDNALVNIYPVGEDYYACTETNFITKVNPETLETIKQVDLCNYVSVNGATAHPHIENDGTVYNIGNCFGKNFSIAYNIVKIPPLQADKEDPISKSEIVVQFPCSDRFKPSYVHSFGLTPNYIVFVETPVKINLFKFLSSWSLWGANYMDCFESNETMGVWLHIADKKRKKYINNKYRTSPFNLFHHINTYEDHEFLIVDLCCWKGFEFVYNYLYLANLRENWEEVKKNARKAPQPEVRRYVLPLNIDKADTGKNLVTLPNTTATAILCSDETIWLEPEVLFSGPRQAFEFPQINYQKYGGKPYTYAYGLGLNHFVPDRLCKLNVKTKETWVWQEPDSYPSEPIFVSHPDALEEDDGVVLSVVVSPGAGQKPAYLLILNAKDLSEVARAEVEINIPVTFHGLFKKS

The compound `NCCC(O)c1ccc(OCC2CCCCC2)cc1` (stereo not shown) [Compound 3b, 3-Amino-1-(4-(cyclohexylmethoxy)phenyl)propan-1-ol] gave an IC50 on RPE65 [1] of 8980 ± 3440 nM.
Turning to `NCCC(O)c1ccccc1OCC1CCCCC1` (stereo not shown) [Compound 3c, 3-Amino-1-(2-(cyclohexylmethoxy)phenyl)propan-1-ol], the IC50 at RPE65 [1] (setting [8]) stood at 4670 ± 1230 nM.
As to `NC(CCO)c1cccc(OCC2CCCCC2)c1` (stereo not shown) [Compound 6a, 3-Amino-3-(3-(cyclohexylmethoxy)phenyl)propan-1-ol], the “IC50 ± SD” value on RPE65 [1] (setting [9]) was “No Inhibition”. Moreover, the “RPE65 inhibition (in words)” value on RPE65 [1] was “lack of inhibitory activity; also recorded: no inhibition in vitro”.
The matching figures for `NC(CO)Cc1cccc(OCC2CCCCC2)c1` (stereo not shown) [Compound 6b, 2-Amino-3-(3-(cyclohexylmethoxy)phenyl)propan-1-ol]: “No Inhibition” and “no inhibition in vitro”.
The matching figures for `NC(CO)Cc1ccc(OCC2CCCCC2)cc1` (stereo not shown) [Compound 6c, 2-Amino-3-(4-(cyclohexylmethoxy)phenyl)propan-1-ol]: “No Inhibition” and “lack of dose-response relationship”.
In the case of `NCC(O)c1cccc(OCC2CCCCC2)c1` (stereo not shown) [Compound 11a], the “RPE65 inhibition (in words)” value at RPE65 [1] is listed as “substantially less potent than 3a”. Besides, the IC50 at RPE65 [1] (setting [8]) came out at 3190 ± 810 nM.
Turning to `NCCc1cccc(OCC2CCCCC2)c1` [Compound 11b, 2-(3-(Cyclohexylmethoxy)phenyl)ethan-1-amine], the “RPE65 inhibition in vivo (in words)” value in the data set with RPE65 [2] is listed as “did not display hallmarks of inhibited RPE65 activity in vivo”. In the data set on RPE65 [2] (0 h after light exposure), this compound showed a 11cRAL of 16.2 ± 16.2 pmol/eye and an RE of 225.1 ± 29.5 pmol/eye. In the data set with RPE65 [2] (24 h), this compound gave a 11cRAL of 137.4 ± 44.5 pmol/eye and an RE of 377.3 ± 54.4 pmol/eye. At RPE65 [1] (bovine RPE microsomes), this compound had an IC50 of 420 ± 110 nM. Moreover, on RPE65 [1] (relative to 11a), the “more potent activity toward RPE65 relative to amine 11a” value was 7.6 times.
In the case of `CC(CN)c1cccc(OCC2CCCCC2)c1` (stereo not shown) [Compound 11c, 2-(3-(Cyclohexylmethoxy)phenyl)propan-1-amine], the “RPE65 inhibition (in words)” value on RPE65 [1] is recorded as “weaker inhibition; also recorded: the lowest level of inhibition”. For the same compound, the IC50 on RPE65 [1] (setting [8]) amounted to 6730 ± 260 nM.
As to `NCCc1ccc(F)c(OCC2CCCCC2)c1` [Compound 11d, 2-(3-(Cyclohexylmethoxy)-4-fluorophenyl)ethan-1-amine], on RPE65 [1] (setting [8]), the IC50 came out at 1230 ± 130 nM. Also, on RPE65 [1] (relative to 11b), the “decrease in RPE65 inhibition relative to 11b” value came out at 3 fold.
With `NCCCc1cccc(OCC2CCCCC2)c1` [Compound 16a], the IC50 at RPE65 [1] (setting [8]) was found to be 1550 ± 300 nM. Besides, the “decrease in inhibition of RPE65 relative to 3a” value at RPE65 [1] is recorded as 8 fold.
For `CC(CCN)c1cccc(OCC2CCCCC2)c1` (stereo not shown) [Compound 16b, 3-(3-(Cyclohexylmethoxy)phenyl)butan-1-amine], the “RPE65 inhibition in vivo (in words)” value in the data set on RPE65 [2] was “minor RPE65 inhibition 4 h after treatment, but animals were fully dark-adapted after 24 h”. The 11cRAL in the data set with RPE65 [2] (0 h after light exposure) is 25.6 ± 2.7 pmol/eye; with RPE65 [2] (4 h), 94.4 ± 11.4 pmol/eye; with RPE65 [2] (24 h) it was 370.5 ± 9.1 pmol/eye. Also, the results for the RE in the data set on RPE65 [2] (0 h after light exposure), in the data set with RPE65 [2] (4 h) and in the data set with RPE65 [2] (24 h) were 291.5 ± 33.1 pmol/eye, 435.5 ± 27.5 pmol/eye and 123.9 ± 36.4 pmol/eye, respectively. The “RPE65 inhibition (in words)” value on RPE65 [1] is recorded as “the lowest level of inhibition”. Besides, on RPE65 [1] (setting [8]), the IC50 amounted to 820 ± 500 nM. In addition, on RPE65 [1], the “decrease in inhibition of RPE65 relative to 3a” value came to 4 fold. For the same compound, at RPE65 [1] (relative to 16a), the “potency relative to 16a” value is recorded as “roughly doubled”. Further, the “toxicity observed in treated animals” value in [3] is “all animals showed impaired body movement even 24 h after treatment”.
As for `CC(CN)Cc1cccc(OCC2CCCCC2)c1` (stereo not shown) [Compound 16c], the results for the 11cRAL with RPE65 [2] (0 h after light exposure), in the data set on RPE65 [2] (4 h) and in the data set with RPE65 [2] (24 h) were 17.4 ± 0.8 pmol/eye, 323.0 ± 5.1 pmol/eye and 253.5 ± 9.0 pmol/eye, respectively. The figures for the RE in the data set on RPE65 [2] (0 h after light exposure), with RPE65 [2] (4 h) and in the data set with RPE65 [2] (24 h) were 253.5 ± 22.5 pmol/eye, 111.9 ± 18.5 pmol/eye and 85.6 ± 12.7 pmol/eye, respectively. Further, on RPE65 [1], the IC50 came to 590 ± 70 nM.
Take `CC(CN)Cc1ccc(F)c(OCC2CCCCC2)c1` (stereo not shown) [Compound 16d, 3-(3-(Cyclohexylmethoxy)-4-fluorophenyl)-2-methylpropan-1-amine]: the 11cRAL in the data set with RPE65 [2] (0 h after light exposure) was 23.5 ± 2.3 pmol/eye; in the data set on RPE65 [2] (4 h) it was 398.0±26.6 pmol/eye and 413.2 ± 8.1 pmol/eye; in the data set on RPE65 [2] (24 h) it was 398.0 ± 26.6 pmol/eye. Further, the RE turned out to be 259.9 ± 54.6 pmol/eye with RPE65 [2] (0 h after light exposure), 101.1 ± 12.9 pmol/eye in the data set on RPE65 [2] (4 h) and 122.7 ± 30.6 pmol/eye in the data set with RPE65 [2] (24 h). For the same compound, the “IC50 ± SD” value against RPE65 [1] (setting [9]) is “No Inhibition”. On RPE65 [1], the “RPE65 inhibition (in words)” value is “inactive”.
On to `CNCCC(O)c1cccc(OCC2CCCCC2)c1` (stereo not shown) [Compound 16e, 1-(3-(Cyclohexylmethoxy)phenyl)-3-(methylamino)propan-1-ol], for which the Km (in data set [4]; in “in vitro”) was 39 µM each time. In addition, on VAP-1 [5], the “VAP-1 oxidative metabolism (in words)” value was “resistant to VAP-1 oxidative deamination”. Also, the “ACU-5201 (deaminated product) formed” value came out at 0.00 ± 0.00 µM at VAP-1 [5] (0 h), 0.48 ± 0.68 µM on VAP-1 [5] (1 h) and 3.76 ± 0.29 µM at VAP-1 [5] (4 h). Moreover, the “concentration of tested compound in mouse aorta homogenate” value at VAP-1 [5] (0 h) was found to be 100.32 ± 0.95 µM; at VAP-1 [5] (1 h) it was 101.20 ± 0.89 µM; at VAP-1 [5] (4 h) it was 89.07 ± 0.49 µM. The “reduction of the formation of ACU-5201” value on VAP-1 [5] (1 h) is on record as “about 99.5%”; at VAP-1 [5] (4 h) it was ~96.25%. Further, the results for the 11cRAL with RPE65 [2] (0 h after light exposure), with RPE65 [2] (4 h) and with RPE65 [2] (24 h) were 13.8 ± 1.5 pmol/eye, 22.5 ± 4.5 pmol/eye and 201.8±53.2 pmol/eye, respectively. Moreover, the RE in the data set on RPE65 [2] (0 h after light exposure) was 296.6 ± 65.2 pmol/eye; in the data set on RPE65 [2] (4 h), 393.5 ± 60.0 pmol/eye; in the data set with RPE65 [2] (24 h), 215.4±99.2 pmol/eye and 213.4 ± 99.2 pmol/eye. Also, the “level of 11cRAL as percent of the dark-adapted level” value with RPE65 [2] (24 h) is reported as 53%. Moreover, the “16e level in eye” value (after single IP of 3a, 1 h) turned out to be 0.000 pmol/eye. The “16e level in serum” value by setting is: (after single IP of 3a, 1 h) 0.00 pmol/mL serum; (after single IP of 16e, 24 h) 0.000 pmol/mL serum. Further, the “levels in eye and plasma (in words)” value (after single IP of 16e (10 mg/kg)) was “decreased significantly at 4 h and approached baseline levels in both eye and plasma at 24 h after injection”. Besides, under “read-out: 16e level in serum, after single IP of 16e, 4 h, 10 mg/kg”, the concentration worked out at 0.111 µM.
Consider `COc1cc(NC(C)CCCN)c2ncccc2c1` (stereo not shown) [primaquine], for which, in the data set on VAP-1 [6], the “VAP-1 metabolism (in words)” value is “shown important”.
For the compound `CC1=C(/C=C/C(C)=C/C=C/C(C)=C/CN)C(C)(C)CCC1` [retinylamine], the “potency as RPE65 inhibitor (in words)” value in the data set on RPE65 [7] was “the most potent among them”.
With `N=C(N)NCCCCCCNC(=O)COC(=O)NCCCCNCCCN` [tresperimus], the “VAP-1 metabolism (in words)” value with VAP-1 [6] was “shown important”.
